The values below come from publication PMC8765437, “GSK3640254 Is a Novel HIV-1 Maturation Inhibitor with an Optimized Virology Profile” (Antimicrobial Agents and Chemotherapy, 2022).

Where two headings read alike, the source gives them in different places. A value given as a limit tells only on which side of the number the result lay.

A short description of data set [1]: Estimation of minimum plasma concentration required for clinical efficacy. Set-up: species or system human. The note with it: multiples higher than PBA EC90 of the vast majority of HIV-1 isolates. An excerpt: These viruses were chosen to be representative of the population of Gag genes as a whole, including known polymorphism-containing viruses with reduced susceptibility to GSK’795, as well as SDM viruses with multiple changes that had previously been identified as relevant for susceptibility to earlier MIs ([7], [11]).

In another data set the test system is HIV-1 laboratory strains. Briefly: Laboratory strains, luciferase activity in CEM-NKR-CCR5-Luc cells. In kind it is cell-based. As for the experimental part: Virus yields were measured in dose-response experiments by either luciferase activity in human T-cells (CEM-NKR-CCR5-Luc), extracellular reverse transcriptase activity in MT-2 cells (T-tropic viruses), or extracellular p24 antigen in PM1 cells (M-tropic viruses).
Multiple-cycle assays using recombinant viruses or clinical isolates were used to assess MI antiviral activity as described previously ([10]). pNLRepRlucP373S (the P373S change is in the Gag gene and converts an outlier polymorphism in the NL4-3 gene to the prevalent amino acid in the population) plasmids containing SDMs in Gag or gag/pr regions from clinical isolates were transfected into HEK 293T cells, and the supernatant containing recombinant virus was harvested after 4 to 5 days. Virus was used to infect MT-2 cells in the presence of a 3-fold serially diluted compound at a final dimethyl sulfoxide (DMSO) concentration of 1%. The inocula of the reporter viruses were determined based on the luciferase activity detected on day 4 postinfection. The MOI (ratio of infectious virions to target cells) of reporter-free laboratory strains and clinical isolates was 0.005, as derived from a tissue culture infectious dose study. Clinical isolates or reporter-free viruses were examined in the reporter CEM-NKR-CCR5-Luc cells or PBMCs at MOIs ranging from 0.005 to 0.01. Each infection started with a drug-free preincubation of the cell-virus mixtures, performed at 37°C and 5% CO2 for either 1 h at 2 times the final cell density (reporter viruses) or 1 h (reporter-free laboratory strains) or 3 h (clinical isolates) using cell pellets in 0.5 mL of medium. After preincubation, cell-virus mixtures were added to compound-containing 96-well plates for a final cell density of either 10,000 (MT-2 cells for reporter viruses), 20,000 (MT-2 and PM1 cells for reporter-free laboratory strains), 200,000 (PBMCs for clinical isolates), or 500,000 (CEM-NKR-CCR5-Luc for reporter-free laboratory strains) cells per well. The CEM-NKR-CCR5-Luc cell assay was performed in the presence of Polybrene (10 μg/mL). Virus growth was determined on days 4 to 5 postinfection for reporter variants or days 5 to 11 for the other viruses. The reporter viruses were detected by a luciferase assay according to manufacturer protocols (Brite-Glo luciferase kit [Promega] for CEM-NKR-CCR5-Luc cells and Dual-Luciferase Reporter 1000 assay system [Promega] for the other cells), and luminescence was detected on a Wallac Trilux. The growth of clinical isolates in PBMCs was quantitated by reverse transcriptase activity in a 96-well scintillation proximity assay (SPA). Twenty microliters of culture supernatants was mixed with 40 μL of reaction cocktail (62.5 mM Tris-HCl [pH 7.8], 100 mM KCl, 0.0625% NP-40, 2.5 mM dithiothreitol [DTT], 6.25 mM MgCl2, 1 mM EGTA, 6.25 μg/mL of poly rA, 2.5 μg/mL of streptavidin SPA beads prebound with biotinylated-dT12-18, and 1 μCi of [^3H]TTP). Mixtures were incubated at 37°C for ∼3 h and quenched with 100 μl of 0.25 M EDTA per well. Luminescence was detected on a Wallac Trilux programmed for tritium counting with SPA beads in opaque plates. The growth of the reporter-free laboratory M-tropic strains and clinical isolates was monitored by a p24 enzyme-linked immunosorbent assay (ELISA; PerkinElmer Life Sciences, Waltham, MA) performed on culture supernatants.
Maximal percent inhibition values were calculated as MPI = 100 – (mean signals at the 2 highest concentrations of compound/mean signal of 2 no-drug control wells) × 100.

Data set [2] is described as follows: Human serum protein binding, ultracentrifugation assay. In kind it is in vitro ADME.
For data set [3] the following is noted: in vivo, cited from earlier work.
Data set [4] deals with p25 cleavage in HIV-1 Gag VLPs. Briefly: Gag p25 cleavage assay (delipidated VLPs, HIV-1 protease, LC-MS). It counts as biochemical. The note with it: WT and ΔV370 VLPs; 3 μM compound. As for the experimental part: (§1) Virus-like particles of 3 genotypes were constructed and tested. In addition to WT VLP, a VLP with V370 deleted (ΔV370; a genotype characteristic of subtype C viruses) and one with the known resistance substitution A364V were analyzed. […] A364V is a substitution adjacent to the p25/p24 cleavage site (L363/A364), and in this assay (Fig. 3C), neither MI inhibited production of p24 in the presence of HIV-1 protease.
(§2) As previously described ([22]), VLPs (∼100 ng) were diluted (1:10) in 10 μL of VLP buffer (50 mM MES [pH 6.0], 100 mM NaCl, 2 mM EDTA, and 2 mM dithiothreitol) supplemented with 0.06% Triton X-100 and incubated at room temperature for 10 to 30 min to remove lipid bilayers. […] Samples (1 μL) were taken at 0-, 0.5-, 2-, and 4-h time points and underwent trypsin digestion. […] Peptide samples were then analyzed by liquid chromatography with mass spectrometry using a nanoAcquity ultraperformance liquid chromatography system (Waters Corporation, Milford, MA) interfaced with an LTQ XL Orbitrap mass spectrometer (Thermo Fisher Scientific, Waltham, MA). […]
(§3) Signals for SP1 peptides were normalized to an internal protease fragment at the C-terminal end of Gag, and data were analyzed using Thermo Xcalibur processing software 3.0.63 and Thermo Xcalibur Quanbrowser software 3.0.63 (Thermo Fisher Scientific) as described previously ([23]).

Data set [5] concerns T1, p25 cleavage in HIV-1 Gag VLPs.
T1 construct: made in house
The description is as above. It counts as biochemical. Conditions: A364V VLP; 3 μM compound. The method, then: as §1, §2, §3

For data set [6], the system named is NLRepRlucP373S-based viruses. Briefly: microbe, parasite or virus in culture. In kind it is cell-based, HIV-1. The note with it: for EC50 / EC90: 10% FBS + 40% HS + 27 mg/mL of HSA.
A further data set relates to HIV-1. Also noted: method as in PMID 30352054. Conditions: in combination with emtricitabine and tenofovir disoproxil fumarate; cited from earlier work.
Setting [7] is: Human immunodeficiency virus 1, HS27, V370A.
The mark [8] stands for this setting: Human immunodeficiency virus 1, HS27, Wild type.
Setting [9] is: Human immunodeficiency virus 1, HS27, ΔV370.

The term EC50 denotes the concentration needed to bring the measured effect to its halfway point. What is called fraction unbound is free concentration divided by total concentration. A higher fraction unbound goes with much free substance. For orientation: EC90 means the point of the concentration-response curve where the effect stands at 90%. Take `C=C(C)[C@@H]1CC[C@]2(NCCN3CCS(=O)(=O)CC3)CC[C@]3(C)[C@H](CC[C@@H]4[C@@]5(C)CC=C(C6=CC[C@@](CF)(C(=O)O)CC6)C(C)(C)[C@@H]5CC[C@]43C)[C@@H]12` [GSK’254]: in data set [1], the “estimated Cmin (target human steady-state serum concentration)” value is 150 nM. The EC50 in the data set with HIV-1 laboratory strains (Human immunodeficiency virus 1, 8 HIV-1 laboratory strains (luciferase or p24 endpoints), read-out: mean (standard error of the mean) EC50) is 0.8 nM; in the data set on HIV-1 laboratory strains (Human immunodeficiency virus 1, 8 HIV-1 laboratory strains, read-out: EC50 range), 0.3 to 1.2 nM; in the data set on HIV-1 laboratory strains (Human immunodeficiency virus 1, HXB2, HXB2, T tropic, read-out: EC50 ± SD), 0.7 ± 0.1 nM; with HIV-1 laboratory strains (Human immunodeficiency virus 1, IIIB, IIIB, T tropic, read-out: EC50 ± SD), 0.6 ± 0.4 nM; with HIV-1 laboratory strains (Human immunodeficiency virus 1, LAI, T tropic, read-out: EC50 ± SD), 0.7 ± 0.1 nM; in the data set on HIV-1 laboratory strains (Human immunodeficiency virus 1, MN, T tropic, read-out: EC50 ± SD) it was 0.3 nM. Besides, the EC50 in the data set with HIV-1 laboratory strains (Human immunodeficiency virus 1, NL43, NL4-3, T tropic, read-out: EC50 ± SD) is 0.9 ± 0.2 nM; in the data set on HIV-1 laboratory strains (Human immunodeficiency virus 1, RF, T tropic, read-out: EC50 ± SD), 0.9 ± 0.15 nM; with HIV-1 laboratory strains (Human immunodeficiency virus 1, reporter cell line, read-out: EC50 values for T-tropic HIV-1), under 1 nM; in data set [6] (setting [7]), 9.1 nM; in data set [6] (setting [8]), 12.3 nM; in data set [6] (setting [9]) it was 38.2 nM. Moreover, in data set [2], the fraction unbound is 0.14. Moreover, the safety and tolerability result in data set [3] (po) is “acceptable safety and tolerability”. Besides, the gastrointestinal intolerability result in data set [3] is “only mild gastrointestinal intolerability”. Further, the figures for the “inhibition of p25 cleavage” value in data set [4] and in data set [5] were “significantly better inhibition of p25 cleavage than GSK’795” and “failed to impact cleavage”, respectively. Moreover, the EC90 in data set [6] (setting [7]) is 42.2 nM; in data set [6] (setting [8]), 26.1 nM; in data set [6] (setting [9]) it was 195 nM. The “average potency decrease in human serum” value in data set [6] (average of WT, V370A and ΔV370 viruses) stood at 7.9 fold.

Consider `C=C(C)[C@@H]1CC[C@]2(NCCN3CCS(=O)(=O)CC3)CC[C@]3(C)[C@H](CC[C@@H]4[C@@]5(C)CC=C(c6ccc(C(=O)O)cc6)C(C)(C)[C@@H]5CC[C@]43C)[C@@H]12` [GSK’795, reference compound], for which the gastrointestinal adverse events result in the data set with HIV-1 is “a number of gastrointestinal adverse events”.
